Where two headings read alike, the source gives them in different places.
Molecular target: DDB1AB-CRBN (Homo sapiens, UniProt Q96SW2)
Experiment: Lenalidomide displacement assay (Atto565-Lenalidomide fluorescence polarization)
Type: binding
Details: for Ki: calculated from IC50 with probe Kd of 40 nM, competitive model, read-out: CRBN Binding Ki; for binding affinity with CRBN, in words: fluorescence polarization assay, compared to lenalidomide control, FIG. 1A
Experimental: Compound titrations were incubated for 60 min at RT. The change in fluorescence polarization was monitored using a PHERAstar® FS microplate reader (BMG Labtech) for 1 h in 120 s cycles.

[1] = Table 1, n=2, 10 nM Atto565-Lenalidomide probe, 100 nM DDB1AB-CRBN, read-out: CRBN Binding IC50
[2] = refers to Tables 1 and 2, FIG. 1A/1B, read-out: IC50
[3] = Table 1, n=2, 10 nM Atto565-Lenalidomide probe, 100 nM DDB1AB-CRBN

Sequence of DDB1AB-CRBN (Q96SW2 whole entry): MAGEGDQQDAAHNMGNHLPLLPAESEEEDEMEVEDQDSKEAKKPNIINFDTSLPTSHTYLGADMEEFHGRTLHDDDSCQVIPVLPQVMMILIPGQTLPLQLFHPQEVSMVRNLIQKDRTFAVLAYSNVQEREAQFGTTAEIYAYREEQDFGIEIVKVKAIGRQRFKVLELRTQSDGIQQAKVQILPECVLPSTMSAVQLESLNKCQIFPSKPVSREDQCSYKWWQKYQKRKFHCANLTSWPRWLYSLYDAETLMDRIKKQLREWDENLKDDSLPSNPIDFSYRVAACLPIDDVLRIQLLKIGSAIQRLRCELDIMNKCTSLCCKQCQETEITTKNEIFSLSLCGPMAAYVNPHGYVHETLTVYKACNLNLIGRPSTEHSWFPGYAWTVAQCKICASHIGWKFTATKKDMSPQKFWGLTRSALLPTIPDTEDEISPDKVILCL

Structure (SMILES) | Ki (Table 1) [µM] | IC50 [1] [µM] | also measured
O=C1CCC(NC(=O)c2cccc3nc[nH]c23)C(=O)N1 (stereo not drawn) [Compound 31, N-(2,6-dioxopiperidin-3-yl)-1H-benzo[d]imidazole-4-carboxamide] | 10.7 | 37.6 | –
Nc1ccc(C(=O)NC2CCC(=O)NC2=O)c2ncccc12 (stereo not drawn) [Compound 23, 5-Amino-N-(2,6-dioxopiperidin-3-yl) quinoline-8-carboxamide] | 0.8 | – | IC50 [2]: 2.9 µM
O=C1CCC(NC(=O)c2cccc3c2NCC3)C(=O)N1 (stereo not drawn) [Compound 30, N-(2,6-dioxopiperidin-3-yl)indoline-7-carboxamide] | – | – | CRBN Binding, probe displacement at single concentration (at 100 μM): 50% at 100 μM
Cn1cccc(C(=O)NC2CCC(=O)NC2=O)c1=O (stereo not drawn) [Compound 20, N-(2,6-dioxopiperidin-3-yl)-1-methyl-2-oxo-1,2-dihydropyridine-3-carboxamide] | 66 | 231 | –
O=C1CCC(NC(=O)Nc2ccc(O)cn2)C(=O)N1 (stereo not drawn) [Compound 28, 1-(2,6-Dioxopiperidin-3-yl)-3-(5-hydroxypyridin-2-yl)urea] | – | – | CRBN Binding IC50 [3]: inactive
O=C1CCC(NC(=O)c2ccc[nH]c2=O)C(=O)N1 (stereo not drawn) [Compound 19, N-(2,6-dioxopiperidin-3-yl)-2-oxo-1,2-dihydropyridine-3-carboxamide] | 15 | 53 | –
O=C1CCC(NC(=O)c2cccn(-c3ccccc3)c2=O)C(=O)N1 (stereo not drawn) [Compound 21, N-(2,6-dioxopiperidin-3-yl)-2-oxo-1-phenyl-1,2-dihydropyridine-3-carboxamide] | 20.6 | 72 | –
O=C1CCC(NC(=O)c2cccc3c(O)ccnc23)C(=O)N1 (stereo not drawn) [Compound 26, N-(2,6-dioxopiperidin-3-yl)-4-hydroxyquinoline-8-carboxamide] | – | – | CRBN Binding, probe displacement at single concentration (at 100 μM): 50% at 100 μM; probe displacement (at 100 μM): 50%
O=C1CCC(NC(=O)c2cc(Cl)ccn2)C(=O)N1 (stereo not drawn) [Compound 4, 4-chloro-N-(2,6-dioxopiperidin-3-yl)picolinamide] | – | – | CRBN Binding, probe displacement at single concentration (at 100 μM): 30% at 100 μM; binding affinity with CRBN, in words: moderate binding affinity
COc1cccc(C(=O)NC2CCC(=O)NC2=O)n1 (stereo not drawn) [Compound 6, N-(2,6-dioxopiperidin-3-yl)-6-methoxypicolinamide] | – | – | CRBN Binding IC50 [3]: Inactive
Nc1ccc(NC(=O)NC2CCC(=O)NC2=O)nc1 (stereo not drawn) [Compound 27, 1-(5-aminopyridin-2-yl)-3-(2,6-dioxopiperidin-3-yl)urea] | – | – | CRBN Binding, probe displacement at single concentration (at 100 μM): 50% at 100 μM
O=C1CCC(NC(=O)c2ccc(OCc3ccc(CN4CCOCC4)cc3)cn2)C(=O)N1 (stereo not drawn) [Compound 11, N-(2,6-dioxopiperidin-3-yl)-5-((4-(morpholinomethyl)benzyl)oxy)picolinamide] | – | – | CRBN Binding, probe displacement at single concentration (at 100 μM): 50% at 100 μM
Nc1cccc(C(=O)NC2CCC(=O)NC2=O)n1 (stereo not drawn) [Compound 3, 6-amino-N-(2,6-dioxopiperidin-3-yl)picolinamide] | – | – | CRBN Binding, probe displacement at single concentration (at 100 μM): 30% at 100 μM; binding affinity with CRBN, in words: moderate binding affinity
O=C1CCC(NC(=O)Nc2cccc3c2NCC3)C(=O)N1 (stereo not drawn) [Compound 29, 1-(2,6-Dioxopiperidin-3-yl)-3-(indolin-7-yl)urea] | – | – | CRBN Binding IC50 [3]: inactive

The next lines start with results.

Ki (Table 1) [µM] | IC50 [1] [µM] | Structure (SMILES) | also measured
15.7 | 55 | O=C1CCC(NC(=O)c2cccc(OCc3ccccc3)n2)C(=O)N1 (stereo not drawn) [Compound 1, 6-(benzyloxy)-N-(2,6-dioxopiperidin-3-yl)picolinamide] | –
5 | 17.5 | Nc1cnc2c(C(=O)NC3CCC(=O)NC3=O)cccc2c1 (stereo not drawn) [Compound 25, 3-Amino-N-(2,6-dioxopiperidin-3-yl)quinoline-8-carboxamide] | –
2.2 | – | Nc1ccnc2c(C(=O)NC3CCC(=O)NC3=O)cccc12 (stereo not drawn) [Compound 24, 4-Amino-N-(2,6-dioxopiperidin-3-yl)quinoline-8-carboxamide] | IC50 [2]: 7.7 µM
32.5 | 113 | O=C1CCC(NC(=O)c2ccnc(NCc3ccccc3)n2)C(=O)N1 (stereo not drawn) [Compound 5, 2-(benzylamino)-N-(2,6-dioxopiperidin-3-yl)pyrimidine-4-carboxamide] | binding affinity with CRBN, in words: moderate binding affinity
8.3 | 29 | O=C1CCC(NC(=O)c2ccnc(OCc3ccccc3)n2)C(=O)N1 (stereo not drawn) [Compound 7, 2-(benzyloxy)-N-(2,6-dioxopiperidin-3-yl)pyrimidine-4-carboxamide] | –
15 | 53 | O=C1CCC(NC(=O)c2cccn(Cc3ccccc3)c2=O)C(=O)N1 (stereo not drawn) [Compound 22, 1-Benzyl-N-(2,6-dioxopiperidin-3-yl)-2-oxo-1,2-dihydropyridine-3-carboxamide] | –
4 | 14 | O=C1CCC(NC(=O)c2cccc3cccnc23)C(=O)N1 (stereo not drawn) [Compound 8, N-(2,6-dioxopiperidin-3-yl)quinoline-8-carboxamide] | –
11.4 | 40 | O=C1CCC(NC(=O)c2cccc(OCc3ccc(CN4CCOCC4)cc3)n2)C(=O)N1 (stereo not drawn) [Compound 32, N-(2,6-dioxopiperidin-3-yl)-6-((4-(morpholinomethyl)benzyl)oxy)picolinamide] | –

From US12234220B2, “Immunomodulatory compounds” (DANA-FARBER CANCER INSTITUTE, INC., priority 2018, dated 2025)
